Drawing on US7951752B2, “O-cyclopropyl-carboxanilides and their use as fungicides” (Syngenta Crop Protection, Inc., priority 2002, dated 2011), this text covers melting point for one compound.

As usually defined, the melting point is the temperature, or range, at which the solid turns liquid.

The compound `CC(C)CC1CC1c1ccccc1NC(=O)c1cn(C)cc1C(F)(F)F` (stereo not shown) [Compound 3.17, 1-methyl-4-trifluoromethyl-1H-pyrrole-3-carboxylic acid [2-(2-isobutyl-cyclopropyl)phenyl]amide] returned a melting point of 61 to 65 °C.
